This is an account of results in article PMC3832036, “The crystal structures of the tri-functional Chloroflexus aurantiacus and bi-functional Rhodobacter sphaeroides malyl-CoA lyases and comparison with CitE-like superfamily enzymes and malate synthases” (BMC Structural Biology, 2013).

The target in data set [1] is T1, MCLR (Cereibacter sphaeroides, UniProt Q3J5L6).
T1 construct: gene mcl1
To be noted: 0.5 mM acetyl-CoA, 100 mM pyruvate, 5 mM MgCl2, MOPS/KOH pH 7.5.

Data set [2] deals with T1, MCLR. To be noted: Mg2+; pH 8.5; two closed active sites; not intentionally added, modelled from density.
For data set [3], the target named is T1, MCLR. To be noted: glyoxylate and Mg2+ present; pH 8.5; one of the closed active sites.
Data set [4] concerns the molecule itself. The experiment in a line: SEC; Superdex 200 10/30 GL, 20 mM Tris/HCl pH 7.5, 2 mM MgCl2, 100 mM NaCl, 4°C; molecular weight against protein standards. Background: Size exclusion chromatography separates by hydrodynamic size, large species first.

In the case of `CC(=O)C(=O)O` [PYR, pyruvate], on MCLR [1], the “reversed phase HPLC of citramalyl-CoA formation” value is given as “formation of citramalyl-CoA was confirmed by reversed phase HPLC analysis”.

Regarding `O=CC(=O)O` [GLX, glyoxylate], the “X-ray crystal structure, glyoxylate carried over from E. coli, 2.1 A” value at MCLR [2] is given as “active sites contained electron density that allowed modeling of glyoxylate molecules together with magnesium ions”.

As for `CCC(=O)SCCNC(=O)CCNC(=O)[C@H](O)C(C)(C)COP(=O)(O)OP(=O)(O)OC[C@H]1O[C@@H](n2cnc3c(N)ncnc32)[C@H](O)[C@@H]1OP(=O)(O)O` [PCO, propionyl-CoA], at MCLR [3], the “X-ray crystal structure, crystal soaking, 2.1 A” value is “one of these closed active sites was also occupied by propionyl-CoA”.

B1: malyl-CoA lyase of Rhodobacter sphaeroides (enzyme, Rhodobacter sphaeroides 2.4.1)
chain: MSFRLQPAPPARPNRCQLFGPGSRPALFEKMAASAADVINLDLEDSVAPDDKAQARANIIEAINGLDWGRKYLSVRINGLDTPFWYRDVVDLLEQAGDRLDQIMIPKVGCAADVYAVDALVTAIERAKGRTKPLSFEVIIESAAGIAHVEEIAASSPRLQAMSLGAADFAASMGMQTTGIGGTQENYYMLHDGQKHWSDPWHWAQAAIVAACRTHGILPVDGPFGDFSDDEGFRAQARRSATLGMVGKWAIHPKQVALANEVFTPSETAVTEAREILAAMDAAKARGEGATVYKGRLVDIASIKQAEVIVRQAEMISA
notes: Malyl-CoA lyase of Rhodobacter sphaeroides 2.4.1, GenBank ACJ71673; model 4L9Z holds Ser2 or Phe3 through Met315 with only the C-terminal three residues missing (lid domain residues 264-318); 36.8 kDa per monomer; Hexamer (dimer of trimers); The His10 tag had no electron density in the crystals; also called MCLR; MCL; source: E. coli BL21(DE3), purified (Ni-Sepharose, gel filtration); not shown: …
A word on the stoichiometry N: it is a count of units in the complex or per binding partner. B1: the “stoichiometry N” value in data set [4] amounted to 6.

B2: malyl-CoA lyase of Chloroflexus aurantiacus (enzyme, Chloroflexus aurantiacus OK-70-fl, UniProt S5N020 1-348, looked up)
chain: MRKLAHNFYKPLAIGAPEPIRELPVRPERVVHFFPPHVEKIRARIPEVAKQVDVLCGNLEDAIPMDAKEAARNGFIEVVKATDFGDTALWVRVNALNSPWVLDDIAEIVAAVGNKLDVIMIPKVEGPWDIHFVDQYLALLEARHQIKKPILIHALLETAQGMVNLEEIAGASPRMHGFSLGPADLAASRGMKTTRVGGGHPFYGVLADPQEGQAERPFYQQDLWHYTIARMVDVAVAHGLRAFYGPFGDIKDEAACEAQFRNAFLLGCTGAWSLAPNQIPIAKRVFSPDVNEVLFAKRILEAMPDGSGVAMIDGKMQDDATWKQAKVIVDLARMIAKKDPDLAQAYGL
notes: Malyl-CoA lyase of Chloroflexus aurantiacus OK-70-fl, GenBank AGR55786; gene amplified from chromosomal DNA with primers upstream (NdeI at the start codon) and downstream of the gene, cloned into pT7-7; 348 residues (models run from Arg2 to Leu348, the native C-terminus); calculated 38.4 kDa per monomer; Hexamer (dimer of trimers); No tag is named for this construct; also called MCLC; MCL; …
Consider B2, for which the “stoichiometry N” value in data set [4] stood at 6.
